In ChEMBL document CHEMBL1201862, “PubChem BioAssay data set” (2004):
Activity calls are given as the source filed them.

Experiments:
[1] = molecular target: T1, High affinity choline transporter 1 (Homo sapiens, UniProt Q9GZV3); assay: human choline transporter potentiators, potency – cell-based, 10-point CRC, membrane potential dye, dose response (AID 602376); type: functional
T1 sequence (Q9GZV3 whole entry): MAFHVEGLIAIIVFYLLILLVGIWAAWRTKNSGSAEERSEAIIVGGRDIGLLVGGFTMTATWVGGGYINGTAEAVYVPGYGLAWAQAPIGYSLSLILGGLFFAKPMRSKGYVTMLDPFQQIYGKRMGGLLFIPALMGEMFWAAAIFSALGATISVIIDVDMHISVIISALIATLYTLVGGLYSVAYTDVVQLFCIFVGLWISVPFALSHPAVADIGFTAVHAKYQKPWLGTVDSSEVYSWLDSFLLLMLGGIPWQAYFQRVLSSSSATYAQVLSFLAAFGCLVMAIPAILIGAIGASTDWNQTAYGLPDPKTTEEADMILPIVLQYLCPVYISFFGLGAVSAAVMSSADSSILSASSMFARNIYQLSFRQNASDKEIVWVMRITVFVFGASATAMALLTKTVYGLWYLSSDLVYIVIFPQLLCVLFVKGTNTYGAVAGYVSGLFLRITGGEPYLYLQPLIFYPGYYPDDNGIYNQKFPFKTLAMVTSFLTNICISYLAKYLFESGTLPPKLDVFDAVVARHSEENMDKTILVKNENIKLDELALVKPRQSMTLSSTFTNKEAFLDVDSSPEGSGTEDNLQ

[2] = loss of viability in HepG2 cells – cell-based, CellTiter-Glo, cherry-picked, cytotoxicity control for Shn3 inhibitor project, dose response (AID 624134); type: functional
[3] = molecular target: T2, Replicative DNA helicase DnaB (Mycobacterium tuberculosis, UniProt P9WMR3); assay: DnaB intein splicing inhibitors, dose response, biochemical, cell-free fluorescence (AID 449749); type: functional
T2 sequence (P9WMR3 whole entry): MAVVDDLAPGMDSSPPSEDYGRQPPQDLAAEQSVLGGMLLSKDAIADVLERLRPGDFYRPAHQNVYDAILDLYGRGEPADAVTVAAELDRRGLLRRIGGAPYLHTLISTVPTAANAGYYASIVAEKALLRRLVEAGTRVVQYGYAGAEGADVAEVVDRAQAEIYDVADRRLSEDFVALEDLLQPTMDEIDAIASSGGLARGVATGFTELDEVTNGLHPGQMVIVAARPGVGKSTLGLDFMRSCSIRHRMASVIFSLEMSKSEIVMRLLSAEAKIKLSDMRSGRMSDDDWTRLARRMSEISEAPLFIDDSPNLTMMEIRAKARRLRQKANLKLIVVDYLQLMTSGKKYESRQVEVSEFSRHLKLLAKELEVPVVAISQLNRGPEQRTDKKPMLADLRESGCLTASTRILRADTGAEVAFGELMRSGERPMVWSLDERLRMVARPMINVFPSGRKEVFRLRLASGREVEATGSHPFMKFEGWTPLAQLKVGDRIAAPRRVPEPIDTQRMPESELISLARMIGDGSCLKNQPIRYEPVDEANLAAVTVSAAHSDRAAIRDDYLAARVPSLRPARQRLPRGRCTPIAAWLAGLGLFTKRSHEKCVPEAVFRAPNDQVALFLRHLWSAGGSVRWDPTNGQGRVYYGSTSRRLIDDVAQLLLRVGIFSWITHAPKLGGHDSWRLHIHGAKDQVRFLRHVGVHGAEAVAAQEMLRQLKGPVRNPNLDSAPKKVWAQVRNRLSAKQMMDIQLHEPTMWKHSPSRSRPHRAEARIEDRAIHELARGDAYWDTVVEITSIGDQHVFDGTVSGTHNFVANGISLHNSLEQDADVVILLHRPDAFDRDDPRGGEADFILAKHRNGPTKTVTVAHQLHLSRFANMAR

[4] = non-specific 3'UTR reporter inhibition in Clone20-Shn3RL – cell-based, Renilla luciferase, cherry-picked, counter-screen for Shn3 inhibitor project, dose response (AID 624133); type: functional
[5] = reduction of Shn3 3'UTR-driven luciferase in osteoblasts – cell-based, Clone20 osteoblasts, firefly luciferase, cherry-picked, dose response (AID 624132); type: functional;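 further: firefly luciferase luminescence from reporter carrying the Shn3 3'UTR in osteoblasts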
CHO = CHO cell viability loss, potency – luminescence, cytotoxicity control for TLR9-MyD88 binding inhibitor project, dose response (AID 588339); type: functional, cell-based, hamster; details: Cricetulus griseus;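 further: CHO cells stably coexpressing TLR9 and MyD88 fusions from primary screen; compound exposure lasted 48 hours before viability readout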
Beta Lactamase = Beta Lactamase (Pseudomonas aeruginosa, UniProt Q932Y6); assay: BLA reporter interference, concentration series – BLA reporter cells, FRET fluorescence, artefact control for TLR9-MyD88 binding inhibitor project, dose response (AID 588341); type: cell-based;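 further: cell based assay in CHO-K1 cells stably expressing beta-lactamase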
[6] = molecular target: T1, High affinity choline transporter 1; assay: human choline transporter blockers, potency – cell-based, 5-point CRC, membrane potential dye, dose response (AID 504840); type: functional
Protein RecA = molecular target: T3, Protein RecA (Mycobacterium tuberculosis, UniProt P9WHJ3); assay: Fluorescence Cell-Free Homogeneous Dose Retest to Identify Inhibitors of RecA-Intein Splicing Activity. [Related pubchem assays (depositor defined):AID2097, AID2223, AID489010, AID492950]; type: functional
T3 sequence (P9WHJ3 whole entry): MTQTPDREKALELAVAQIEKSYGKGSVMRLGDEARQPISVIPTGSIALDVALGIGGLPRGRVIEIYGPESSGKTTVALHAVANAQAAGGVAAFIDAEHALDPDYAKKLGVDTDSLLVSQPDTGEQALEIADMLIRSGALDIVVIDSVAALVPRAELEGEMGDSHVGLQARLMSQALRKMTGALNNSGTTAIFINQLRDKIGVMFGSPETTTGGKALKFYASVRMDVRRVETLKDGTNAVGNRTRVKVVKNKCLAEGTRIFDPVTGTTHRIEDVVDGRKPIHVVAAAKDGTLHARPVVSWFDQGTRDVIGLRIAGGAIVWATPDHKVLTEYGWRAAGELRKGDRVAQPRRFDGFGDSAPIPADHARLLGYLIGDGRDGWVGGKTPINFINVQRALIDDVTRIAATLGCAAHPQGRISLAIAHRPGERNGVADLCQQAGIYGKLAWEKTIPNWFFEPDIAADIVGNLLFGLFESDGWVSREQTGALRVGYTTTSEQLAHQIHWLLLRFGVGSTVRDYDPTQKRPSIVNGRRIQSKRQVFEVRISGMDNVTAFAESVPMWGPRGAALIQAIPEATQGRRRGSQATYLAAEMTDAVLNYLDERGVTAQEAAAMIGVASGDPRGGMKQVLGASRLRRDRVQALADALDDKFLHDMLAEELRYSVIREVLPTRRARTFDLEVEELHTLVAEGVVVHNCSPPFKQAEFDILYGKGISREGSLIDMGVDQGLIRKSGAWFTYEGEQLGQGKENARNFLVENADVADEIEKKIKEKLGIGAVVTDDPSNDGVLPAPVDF

INS1 = assay: suppression of NO production in INS-1E cells – cell-based, Griess absorbance, dry powder, set 2, dose response (AID 488868); type: functional; details: Rattus norvegicus
[7] = molecular target: Melanin-concentrating hormone receptor 1 (Homo sapiens, UniProt Q99705); assay: Late-stage fluorescence-based counterscreen for antagonists of the G-protein coupled receptor 7 (GPR7): cell-based dose response assay to identify antagonists of the melanin-concentrating hormone receptor 1 (MCHR1) Set 6.; type: functional
Melanin-concentrating hormone receptor 1, sequence (Q99705 whole entry): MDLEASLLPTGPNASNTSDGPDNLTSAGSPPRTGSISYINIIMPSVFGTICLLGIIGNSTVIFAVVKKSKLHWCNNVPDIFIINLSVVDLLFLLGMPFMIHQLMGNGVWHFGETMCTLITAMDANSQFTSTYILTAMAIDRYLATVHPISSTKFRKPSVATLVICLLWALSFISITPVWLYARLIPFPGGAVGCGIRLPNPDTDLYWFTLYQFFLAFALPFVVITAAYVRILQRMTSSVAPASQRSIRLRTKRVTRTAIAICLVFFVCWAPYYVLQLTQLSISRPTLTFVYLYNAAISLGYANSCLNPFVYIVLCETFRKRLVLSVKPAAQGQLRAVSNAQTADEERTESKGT

[8] = molecular target: T4, Neuropeptides B/W receptor type 1 (Homo sapiens, UniProt P48145); assay: human NPBW1 receptor blockade, IC50 – cell-based, fluorescence, dose response, set 6, late-stage follow-up (AID 588583); type: functional
T4 sequence (P48145 whole entry): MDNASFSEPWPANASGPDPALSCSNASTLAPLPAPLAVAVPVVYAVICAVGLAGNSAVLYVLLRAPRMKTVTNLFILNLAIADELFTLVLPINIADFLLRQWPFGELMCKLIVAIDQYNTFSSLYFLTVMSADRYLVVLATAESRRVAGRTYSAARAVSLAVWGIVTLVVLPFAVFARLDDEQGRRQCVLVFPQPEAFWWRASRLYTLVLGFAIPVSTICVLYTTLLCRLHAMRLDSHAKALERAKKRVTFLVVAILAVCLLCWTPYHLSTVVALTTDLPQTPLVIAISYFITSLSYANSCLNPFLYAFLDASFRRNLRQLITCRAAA

[9] = molecular target: Casein kinase I isoform alpha (Homo sapiens, UniProt P48729); type: functional
[10] = molecular target: Cyclin-dependent kinase 9 (Homo sapiens, UniProt P50750); type: functional;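 further: value from the CDK9 entry of a kinome-spanning kinase panel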
[11] = molecular target: Mitogen-activated protein kinase 14 (Homo sapiens, UniProt Q16539); type: functional;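 further: part of a kinome-wide panel, MAPK14 entry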
Mitogen-activated protein kinase 14, sequence (Q16539 whole entry): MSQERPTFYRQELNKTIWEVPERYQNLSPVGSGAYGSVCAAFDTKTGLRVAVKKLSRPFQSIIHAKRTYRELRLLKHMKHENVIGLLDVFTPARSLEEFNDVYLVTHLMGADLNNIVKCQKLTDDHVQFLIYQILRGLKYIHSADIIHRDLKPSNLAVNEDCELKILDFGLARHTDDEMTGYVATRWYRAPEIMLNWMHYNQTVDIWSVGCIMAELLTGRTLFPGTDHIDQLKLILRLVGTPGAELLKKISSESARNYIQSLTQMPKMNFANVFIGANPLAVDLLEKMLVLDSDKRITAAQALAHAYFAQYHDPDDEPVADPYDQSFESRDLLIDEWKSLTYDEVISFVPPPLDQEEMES

[12] = molecular target: MAP kinase-activated protein kinase 5 (Homo sapiens, UniProt Q8IW41); type: functional;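 further: measured as one member of a kinome panel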
[13] = molecular target: Protein kinase C gamma type (Homo sapiens, UniProt P05129); type: functional
[14] = molecular target: Serine/threonine-protein kinase pim-3 (Homo sapiens, UniProt Q86V86); type: functional;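 further: value obtained as one member of a broad kinase panel profiling effort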
[15] = molecular target: Homeodomain-interacting protein kinase 2 (Homo sapiens, UniProt Q9H2X6); type: functional;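 further: measured within a kinome-wide kinase profiling panel, HIPK2 being one panel member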
Homeodomain-interacting protein kinase 2, sequence (Q9H2X6 whole entry): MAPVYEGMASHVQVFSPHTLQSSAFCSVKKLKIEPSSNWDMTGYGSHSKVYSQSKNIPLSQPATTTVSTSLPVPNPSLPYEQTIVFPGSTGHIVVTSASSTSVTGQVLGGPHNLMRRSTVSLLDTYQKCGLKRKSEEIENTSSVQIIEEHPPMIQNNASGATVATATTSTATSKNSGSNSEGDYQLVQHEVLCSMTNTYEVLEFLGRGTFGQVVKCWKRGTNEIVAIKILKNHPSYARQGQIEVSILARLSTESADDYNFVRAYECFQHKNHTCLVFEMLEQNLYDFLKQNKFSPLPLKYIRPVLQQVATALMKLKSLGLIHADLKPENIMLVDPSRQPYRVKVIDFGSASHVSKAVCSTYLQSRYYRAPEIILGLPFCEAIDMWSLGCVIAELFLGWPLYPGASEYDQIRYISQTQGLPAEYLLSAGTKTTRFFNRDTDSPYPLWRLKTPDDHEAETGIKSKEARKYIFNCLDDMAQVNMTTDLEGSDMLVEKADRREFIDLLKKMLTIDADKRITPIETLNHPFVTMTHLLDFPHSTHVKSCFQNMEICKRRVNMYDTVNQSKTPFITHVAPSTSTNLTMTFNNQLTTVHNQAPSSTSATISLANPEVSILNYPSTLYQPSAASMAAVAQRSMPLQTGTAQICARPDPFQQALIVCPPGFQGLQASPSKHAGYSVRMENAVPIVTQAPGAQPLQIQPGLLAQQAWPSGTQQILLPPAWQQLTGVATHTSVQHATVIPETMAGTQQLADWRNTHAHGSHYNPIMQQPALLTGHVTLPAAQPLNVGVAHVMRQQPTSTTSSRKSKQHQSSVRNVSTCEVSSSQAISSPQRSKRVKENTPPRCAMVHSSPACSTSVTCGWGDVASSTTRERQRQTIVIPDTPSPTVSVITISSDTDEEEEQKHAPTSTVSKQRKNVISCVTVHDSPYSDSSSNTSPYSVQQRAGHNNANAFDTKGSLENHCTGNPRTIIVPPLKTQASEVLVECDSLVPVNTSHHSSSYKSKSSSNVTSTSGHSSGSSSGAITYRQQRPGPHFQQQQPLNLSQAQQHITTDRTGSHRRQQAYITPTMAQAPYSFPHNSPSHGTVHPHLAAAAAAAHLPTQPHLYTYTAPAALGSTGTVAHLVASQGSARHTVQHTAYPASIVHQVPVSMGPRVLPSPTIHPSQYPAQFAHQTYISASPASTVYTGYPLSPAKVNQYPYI

[16] = molecular target: Calcium/calmodulin-dependent protein kinase kinase 2 (Homo sapiens, UniProt Q96RR4); assay: Navigating the Kinome. Panel member name: CAMKK2; type: functional
[17] = molecular target: cGMP-dependent protein kinase 1 (Homo sapiens, UniProt Q13976); type: functional;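 further: value from a kinome panel screen with PRKG1 as the panel member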
[18] = molecular target: RAC-alpha serine/threonine-protein kinase (Homo sapiens, UniProt P31749); type: functional;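 further: AKT1 affinity measured as one member of a kinome-wide kinase profiling panel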
RAC-alpha serine/threonine-protein kinase, sequence (P31749 whole entry): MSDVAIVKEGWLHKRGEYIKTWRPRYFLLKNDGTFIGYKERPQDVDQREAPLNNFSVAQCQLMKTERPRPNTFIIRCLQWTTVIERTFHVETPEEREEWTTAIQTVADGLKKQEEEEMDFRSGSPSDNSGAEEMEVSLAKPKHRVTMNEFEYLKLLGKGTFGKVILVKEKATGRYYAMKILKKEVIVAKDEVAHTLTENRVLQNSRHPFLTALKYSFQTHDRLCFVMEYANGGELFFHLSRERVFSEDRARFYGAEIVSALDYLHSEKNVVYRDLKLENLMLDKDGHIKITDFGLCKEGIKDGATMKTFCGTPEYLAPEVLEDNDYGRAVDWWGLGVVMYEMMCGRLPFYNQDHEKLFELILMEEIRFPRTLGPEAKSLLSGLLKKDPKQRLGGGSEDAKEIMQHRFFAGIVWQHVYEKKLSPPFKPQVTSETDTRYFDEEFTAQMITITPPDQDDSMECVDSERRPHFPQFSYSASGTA

[19] = molecular target: T5, cAMP-dependent protein kinase catalytic subunit PRKX (Homo sapiens, UniProt P51817); type: functional
T5 sequence (P51817 whole entry): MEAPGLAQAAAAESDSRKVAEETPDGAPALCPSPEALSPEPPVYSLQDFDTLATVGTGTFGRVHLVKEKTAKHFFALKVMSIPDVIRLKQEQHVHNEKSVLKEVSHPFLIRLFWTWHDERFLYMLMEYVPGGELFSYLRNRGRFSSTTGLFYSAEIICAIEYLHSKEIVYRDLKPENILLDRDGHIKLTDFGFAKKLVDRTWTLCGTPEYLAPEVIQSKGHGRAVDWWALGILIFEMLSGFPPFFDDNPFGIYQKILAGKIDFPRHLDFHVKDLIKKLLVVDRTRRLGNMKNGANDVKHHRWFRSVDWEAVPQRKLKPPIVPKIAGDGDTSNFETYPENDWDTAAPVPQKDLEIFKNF

[20] = molecular target: Serine/threonine-protein kinase pim-1 (Homo sapiens, UniProt P11309); type: functional
Serine/threonine-protein kinase pim-1, sequence (P11309 whole entry): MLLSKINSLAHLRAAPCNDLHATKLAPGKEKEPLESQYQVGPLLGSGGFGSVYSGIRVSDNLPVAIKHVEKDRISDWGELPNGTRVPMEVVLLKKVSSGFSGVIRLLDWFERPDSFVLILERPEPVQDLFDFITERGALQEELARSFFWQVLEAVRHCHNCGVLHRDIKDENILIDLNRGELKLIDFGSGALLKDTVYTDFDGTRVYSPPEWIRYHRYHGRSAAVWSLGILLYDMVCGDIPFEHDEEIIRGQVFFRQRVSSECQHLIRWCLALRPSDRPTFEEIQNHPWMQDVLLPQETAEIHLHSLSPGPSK

[21] = molecular target: Dual specificity tyrosine-phosphorylation-regulated kinase 4 (Homo sapiens, UniProt Q9NR20); type: functional
[22] = molecular target: Protein kinase C iota type (Homo sapiens, UniProt P41743); type: functional;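 further: measured within a kinome-wide kinase panel, PRKCI as panel member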
[23] = molecular target: Serine/threonine-protein kinase D2 (Homo sapiens, UniProt Q9BZL6); type: functional;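 further: measured against PRKD2 as one member of a kinome-wide kinase profiling panel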
[24] = molecular target: RAC-gamma serine/threonine-protein kinase (Homo sapiens, UniProt Q9Y243); type: functional
[25] = molecular target: Casein kinase I isoform delta (Homo sapiens, UniProt P48730); type: functional;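 further: measured as one member (CSNK1D) of a kinome panel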
[26] = molecular target: Calcium/calmodulin-dependent protein kinase type II subunit beta (Homo sapiens, UniProt Q13554); type: functional
Calcium/calmodulin-dependent protein kinase type II subunit beta, sequence (Q13554 whole entry): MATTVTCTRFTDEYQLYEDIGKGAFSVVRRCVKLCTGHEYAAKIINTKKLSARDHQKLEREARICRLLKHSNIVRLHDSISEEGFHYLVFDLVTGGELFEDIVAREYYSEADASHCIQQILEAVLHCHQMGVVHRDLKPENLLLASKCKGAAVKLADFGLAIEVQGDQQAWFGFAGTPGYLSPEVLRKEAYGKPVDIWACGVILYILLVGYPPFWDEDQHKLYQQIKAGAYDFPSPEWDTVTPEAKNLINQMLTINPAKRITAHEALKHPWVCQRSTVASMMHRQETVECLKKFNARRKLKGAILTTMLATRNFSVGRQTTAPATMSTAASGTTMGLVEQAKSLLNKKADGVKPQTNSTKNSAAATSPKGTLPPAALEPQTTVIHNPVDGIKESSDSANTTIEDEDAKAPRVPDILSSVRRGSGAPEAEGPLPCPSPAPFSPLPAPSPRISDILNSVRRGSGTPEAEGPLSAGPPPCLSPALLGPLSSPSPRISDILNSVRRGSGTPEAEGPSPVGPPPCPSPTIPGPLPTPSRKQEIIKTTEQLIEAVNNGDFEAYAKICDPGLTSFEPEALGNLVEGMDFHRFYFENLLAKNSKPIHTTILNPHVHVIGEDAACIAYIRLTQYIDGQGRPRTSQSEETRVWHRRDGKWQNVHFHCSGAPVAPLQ

[27] = molecular target: Dual specificity tyrosine-phosphorylation-regulated kinase 1B (Homo sapiens, UniProt Q9Y463); assay: Navigating the Kinome. Panel member name: DYRK1B; type: functional
Dual specificity tyrosine-phosphorylation-regulated kinase 1B, sequence (Q9Y463 whole entry): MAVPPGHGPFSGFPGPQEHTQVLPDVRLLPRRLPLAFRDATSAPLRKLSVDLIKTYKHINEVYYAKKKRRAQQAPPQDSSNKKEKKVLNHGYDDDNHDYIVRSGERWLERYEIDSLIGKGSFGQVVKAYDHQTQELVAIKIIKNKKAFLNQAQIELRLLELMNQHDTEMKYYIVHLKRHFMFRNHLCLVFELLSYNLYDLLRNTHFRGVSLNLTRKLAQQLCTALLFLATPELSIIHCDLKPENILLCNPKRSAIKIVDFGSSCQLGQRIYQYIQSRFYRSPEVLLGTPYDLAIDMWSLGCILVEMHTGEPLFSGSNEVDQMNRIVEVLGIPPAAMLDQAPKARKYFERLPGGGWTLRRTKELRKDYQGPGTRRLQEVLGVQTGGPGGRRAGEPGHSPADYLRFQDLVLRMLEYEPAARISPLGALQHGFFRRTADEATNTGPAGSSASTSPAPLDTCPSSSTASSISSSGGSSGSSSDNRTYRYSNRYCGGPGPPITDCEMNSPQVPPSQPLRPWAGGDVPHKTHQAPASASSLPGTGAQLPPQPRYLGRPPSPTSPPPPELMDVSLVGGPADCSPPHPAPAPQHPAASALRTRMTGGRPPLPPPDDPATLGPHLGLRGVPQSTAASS

[28] = molecular target: Serine/threonine-protein kinase pim-2 (Homo sapiens, UniProt Q9P1W9); type: functional;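 further: value comes from a broad kinase panel profiling study in which PIM2 was one of the panel members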

For COc1ccc(N2C(=O)/C(=C\c3ccco3)N=C2SCC(=O)N(C(C)C)C(C)C)cc1Cl, the EC50 [1] was 17.6 µM (active).
In the case of COc1cccc(NC(=O)c2nc(S(C)(=O)=O)ncc2Cl)c1, the AC50 [2] is reported as 22 µM (active), the AC50 [3] is reported as 0.111 µM (inconclusive) and the AC50 [4] is reported as 11.5 µM (active). For the same compound, the AC50 [5] was 0.834 µM (active), the IC50 (CHO) was 5.41 µM (active) and the IC50 (Beta Lactamase) was 8.9 µM (active). The IC50 [6] was 14.5 µM (active) and the EC50 (Protein RecA) was 6.17 µM (active).
With C[C@@H]1CN([C@@H](C)CO)C(=O)c2cccc(NC(=O)Nc3cccc4ccccc34)c2O[C@H]1CN(C)S(=O)(=O)c1ccccc1 the AC50 (INS1) was 36.1 µM (active).
In the case of N#CC(c1ccc(C(F)(F)F)cc1)c1c(Cl)cnn(Cc2cccc3ccccc23)c1=O (configuration not stated), the IC50 [7] is reported as 0.699 µM (active) and the IC50 [8] is reported as 0.699 µM (active).
In the case of COc1cc(Nc2ncc(F)c(Nc3ccc4c(n3)NC(=O)C(C)(C)O4)n2)cc(OC)c1OC [R-406], the Ki [9] is reported as > 5.01 µM (inactive), the Ki [10] is reported as > 1.58 µM (inactive) and the Ki [11] is reported as > 3.98 µM (inactive). For the same compound, the Ki [12] was > 1.58 µM (inactive), the Ki [13] was 0.251 µM (active) and the Ki [14] was 0.631 µM (active). The Ki [15] was 0.2 µM (active), the Ki [16] was > 2.51 µM (inactive) and the Ki [17] was > 2 µM (inactive). For the same compound, the Ki [18] was > 7.94 µM (inactive), the Ki [19] was > 2.51 µM (inactive) and the Ki [20] was > 6.31 µM (inactive). For the same compound, the Ki [21] was 1.58 µM (active), the Ki [22] was > 5.01 µM (inactive) and the Ki [23] was 0.631 µM (active). For the same compound, the Ki [24] was > 10 µM (inactive), the Ki [25] was > 7.94 µM (inactive) and the Ki [26] was > 7.94 µM (inactive). The Ki [27] was > 2.51 µM (inactive) and the Ki [28] was > 1.58 µM (inactive).
